Source: paper PMC10017155 (Aging and Disease, 2023)
Peptide text beside a SMILES is read from it.

Tests used:
immobilized Aβ42 = target: T1, immobilized Aβ42 (Homo sapiens, UniProt P05067); experiment: SPR analysis of HAEE binding to immobilized Aβ42
T1 construct: Aβ42 ([…] […]); purchased Biopeptide Co., LLC (San Diego, CA, USA); host or cells: chemical synthesis
Method: (§1) All SPR measurements were carried out at 25°C using an optical biosensor Biacore 8K (GE Healthcare, USA) with CM4 optical chip. Covalent immobilization of the peptide ligands on the surface of the optical chip was performed using the sulfhydryl group of the C-terminal tetragly-cylcysteine tag. Briefly, carboxyl groups on the chip surface were activated by serial injections of mixture of 0.4 M EDC/0.1 M NHS at a flow rate of 10 μL/min for 2 min and a solution of 80 mM PDEA in 100 mM borate buffer (pH 8.5) for 4 min. Solutions of 2 μM peptides in the immobilization buffer (10 mM acetate buffer, pH 4.5) were injected for 2 min at a flow rate of 10 μL/min (three repeats). Unreacted activated groups on the chip were blocked by further injection of a solution containing 50 mM cysteine, 1 M NaCl, 0.1 M sodium acetate (pH 4.3) for 4 min at a flow rate of 5 μL/min. Possible nonspecific analyte binding to the chip surface was evaluated using a free (control) channel of the biosensor exposed to the same treatments as the working channel except peptides. SPR signals were recorded in real time in resonance units (RU; 1 RU corresponds to […]) and were presented in the form of sensorgrams showing time-dependent signal changes. […] The obtained sensorgrams were analyzed with BIAevaluation v.4.1 software.

C. elegans CL2120 = experiment: Paralysis assay in C. elegans CL2120; format: in vivo; settings: for Mean fraction of paralyzed: Aβ42 or isoD7-Aβ42 40 μM, HAEE 4 mM, 25°C, mean ± SD of 3 experiments
Method: C. elegans CL2120 (dvIs14 [(pCL12) unc-54::beta 1-42 +(pCL26) mtl-2::GFP]) and C. elegans CL2122 (dvIs15 [(pPD30.38) unc-54(vector) + (pCL26) mtl-2::GFP]) strains were obtained from the Caenorhabditis Genetics Center. The worms were handled according to standard methods without FUDR [18]. E. coli OP50 bacteria were grown overnight in Luria-Bertani broth and 50µl were spread atop NGM or NGMZn plates. NGMZn has 20μM ZnSO4. Seeded plates were incubated at 30°C for ~16 hours and then for 1-2 hours at 15 or 25°C before worms were transferred. Lifespan and paralysis experiments (see below) were performed at 25°C for enhanced expression of Aβ. This temperature is standard when studying the effects of Aβ on C. elegans CL2120 strain [19].
Then, nematodes were transferred to Petri plates with NGM or NGMZn and OP-50, placed in a temperature-controlled incubator at 25°C. On the next day, worms were transferred onto similar media with a bacterial substrate and paralyzed nematodes were counted at equal time intervals. […] For the paralysis experiments, we chose the days where we could clearly distinguish between paralysis and mortality. This conformed to the third and fourth days of their adult life. While at least three repeated trials were conducted, each experiment was performed using at least 100 worms. Details regarding repeated experiments and amounts of animals used for experiments are summarized in Supplementary Table 2. Mean fraction of paralyzed worms was compared between groups with two-way ANOVA, accounting for age and treatment. Post-hoc analysis was performed with the Tukey test. Statistical analysis was performed with GraphPad Prism 9.1 software.

transgenic mice = settings: cited from earlier work
From the text: The development of AD comprises a cascade of pathogenic processes in brain tissue. Some of the major elements of this cascade are the aggregation of beta-amyloid (Aβ) with the formation of neurotoxic oligomers, hyperphosphorylation of tau, and neuroinflammation. […] In the sporadic form of AD, accounting for 95% of disease cases, the molecular triggers for the pathological cascade remain unknown. […] We hypothesized that the contribution of isoD7-Aβ to the development of AD is based on the formation of zinc-bound complexes that promote pathological aggregation of Aβ (Fig. 1A). […] Interaction of HAEE with beta-amyloid. (A) A model for the contribution of isoD7-Aβ to AD pathology, and the possible ways of preventing its deleterious effects. Aβ spontaneously converts into isoD7-Aβ, which is accumulated over age, likely due to reduced Aβ clearance. Isomerized Aβ promotes AD pathology, potentially via formation of Zn-bound complexes serving as the seeds for a generation of neurotoxic oligomers. Treatment with anti-isoAβ antibodies is a promising therapeutic strategy already showing effectiveness in AD model mice ^9.

isoD7-Aβ16 = experiment: NMR titration, isoD7-Aβ16 with HAEE and Zn2+; format: binding; settings: NMR
Method: Peptides Aβ16, H6R-Aβ16 and isoD7-Aβ16 at the concentration of 0.2 - 8mM were dissolved in 10-20 mM bis-Tris-d19 (2,2-Bis(hydroxymethyl)-2,2′,2"-nitrilotrie-thanol-d19 with 98% ^2D enrichment) buffer solution (pH 6.8). Sodium salt of 3-(trimethylsilyl) propionic-2,2,3,3-d4 acid (DSS) at a concentration of 10-20 μM was added as the standard. NMR spectra were measured at 278 K in 90% H2O/10% D2O with Bruker AVANCE 600 MHz spectrometer equipped with triple resonance (^1H, ^13C and ^15N) pulsed field z gradient probe. 1D NMR spectra were processed and analyzed using the Mnova software (Mestrelab Research, Spain). In order to monitor peptide-peptide interactions NMR titration experiments were carried out. […] 1D spectra were recorded for each titration point.

immobilized isoD7-Aβ42 = target: T2, immobilized isoD7-Aβ42 (Homo sapiens, UniProt P05067); experiment: SPR analysis of HAEE binding to immobilized isoD7-Aβ42
T2 construct: isoD7-Aβ42 (DAEFRH[isoD][…]); purchased Biopeptide Co., LLC (San Diego, CA, USA); host or cells: chemical synthesis
Method: as §1

T2 sequence (P05067 672-713): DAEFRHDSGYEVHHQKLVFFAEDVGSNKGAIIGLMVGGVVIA
T1 sequence (P05067 672-713): as above

With CC(=O)N[C@@H](Cc1c[nH]cn1)C(=O)N[C@@H](C)C(=O)N[C@@H](CCC(=O)O)C(=O)N[C@@H](CCC(=O)O)C(N)=O [HAEE, Ac-HAEE-NH2] (Ac-HAEE-NH2) the Kd (immobilized Aβ42) was 4.1 ± 0.3 µM, the “Interaction with immobilized Aβ42 in the absence of Zn2+” value (immobilized Aβ42; SPR, 10 mM HEPES, pH 6.8, no Zn2+, 25°C) was “no interaction” and the “Mean fraction of paralyzed” value (C. elegans CL2120; A3 (3 days old), NGM (no Zn)) was 5.5±0.35%. The Fraction of paralyzed (C. elegans CL2120; A3 (3 days old), NGM (no Zn), replicate 1) was 5.5%, the Fraction of paralyzed (C. elegans CL2120; A3 (3 days old), NGM (no Zn), replicate 2) was 5.2% and the Fraction of paralyzed (C. elegans CL2120; A3 (3 days old), NGM (no Zn), replicate 3) was 5.9%. The “Mean fraction of paralyzed” value (C. elegans CL2120; A4 (4 days old), NGM (no Zn)) was 10.5±0.55%, the Fraction of paralyzed (C. elegans CL2120; A4 (4 days old), NGM (no Zn), replicate 1) was 9.9% and the Fraction of paralyzed (C. elegans CL2120; A4 (4 days old), NGM (no Zn), replicate 2) was 10.9%. For the same compound, the “Mean fraction of paralyzed” value (C. elegans CL2120; A4 (4 days old), NGMZn (ZnSO4 20 μM)) was 9.5±0.65%, the Fraction of paralyzed (C. elegans CL2120; A4 (4 days old), NGMZn, replicate 1) was 10.2% and the Fraction of paralyzed (C. elegans CL2120; A4 (4 days old), NGMZn, replicate 2) was 9.5%. The Fraction of paralyzed (C. elegans CL2120; A4 (4 days old), NGMZn, replicate 3) was 8.9%, the “Effect of HAEE on isoD7-Aβ42/Zn2+-accelerated paralysis” value (C. elegans CL2120; HAEE 4 mM + isoD7-Aβ42 40 μM, NGMZn) was “suppresses this effect” and the “Amyloid accumulation in animal models of AD” value (transgenic mice) was “hamper amyloid accumulation”. For the same compound, the “Zinc-dependent dimerization of isoD7-Aβ16” value (isoD7-Aβ16; 278 K, pH 6.8, Zn2+) was “inhibits”, the “Effect of Zn2+ on isoD7-Aβ16 NMR signal in the presence of HAEE” value (isoD7-Aβ16; pH 6.8, 278 K, Zn2+ plus HAEE) was “did not diminish the isoD7-Aβ16 signal” and the “Interaction with immobilized isoD7-Aβ42 in the absence of Zn2+” value (immobilized isoD7-Aβ42; 10 mM HEPES, pH 6.8, no Zn2+, 25°C) was “no interaction”. For the same compound, the Kd (immobilized isoD7-Aβ42; immobilized isoD7-Aβ42, 100 µM ZnCl2, pH 6.8, 25°C) was 10.4 ± 0.4 µM.
